Data set [1] deals with Malassezia furfur (ATCC No. 14521). Nature of the data set: Anti-dandruff efficacy: zone of inhibition by disc diffusion method. The format is cell-based. The arrangement: key: XX denotes No Activity.
Protocol: (§1) The anti-dandruff efficacy was determined by measuring zone of inhibition using disc diffusion method against Malassezia furfur (ATCC No. 14521). […] The culture plates were incubated at 37° C. for 48 hrs and antifungal activity was evaluated by observing an area of no growth around the disc. An area of no growth around the swatch is known as a zone of inhibition.
Data set [2] can be described thus: Anti-leaching (biocide release rate) of paint formulations, ASTM-D-6903-07.
Protocol: The biocide (ZPTO) release rate in each test sample is calculated by the following formula: Biocide (ZPTO) release rate=(CZPTO*V*D)/(T*A) wherein, CZPTO=concentration of ZPTO in substitute ocean water (μgL^−1); V=substitute ocean water volume (L); D=hours per day; T=rotation period (hr); A=Area of paint (cm^2).
[3] abbreviates: combination: ZnP 0.25 w/w % + zinc salt 0.25 w/w %.
The mark [4] stands for this setting: zinc salt alone 0.25 w/w %, no ZnP.
The mark [5] stands for this setting: zinc salt alone 0.50 w/w %, no ZnP.
The mark [6] stands for this setting: zinc salt alone 1.00 w/w %, no ZnP.
Setting [7] is: zinc salt alone 1.50 w/w %, no ZnP.
Where [8] appears, read: zinc salt alone 2.00 w/w %, no ZnP.
Where [9] appears, read: combination: ZnP 0.25 w/w % + zinc salt 0.50 w/w %.
[10] abbreviates: combination: ZnP 0.25 w/w % + zinc salt 1.50 w/w %.

Protocol for M. furfur: as §1
The SI is calculated based on F. C. […] SI=Qa/QA+Qb/QB Qa=the concentration of compound A in the blend; Qb=the concentration of compound B in the blend; QA=the concentration of compound A as the only biocide; QB=the concentration of compound B as the only biocide.
If SI (the Synergy Index) is greater than one, antagonism between the products is indicated. If the sum is equal to one, additivity is indicated. But when SI is less than one, synergism is shown, i.e. the lower the SI the greater the synergy shown.

Turning to `NCC(=O)[O-].NCC(=O)[O-].[Zn+2]` [Zn-Gly], the “Zone of Inhibition” value in data set [1] (setting [3]) was 30 mm; in data set [1] (setting [4]), “XX”; in data set [1] (setting [5]) it was “XX”; in data set [1] (setting [6]), “XX”; in data set [1] (setting [7]) it was “XX”; in data set [1] (setting [8]), “XX”.
On to `CC(O)C(=O)[O-].CC(O)C(=O)[O-].[Zn+2]` (centres unmarked) [Zn-Lac], for which the “Zone of Inhibition” value in data set [1] (setting [3]) is given as 38 mm; in data set [1] (setting [4]), “XX”; in data set [1] (setting [5]) it was “XX”; in data set [1] (setting [6]), “XX”; in data set [1] (setting [7]), “XX”; in data set [1] (setting [8]), “XX”.
Regarding `O=C([O-])c1ccccn1.O=C([O-])c1ccccn1.[Zn+2]` [Zn-Pic], the “Zone of Inhibition” value in data set [1] (setting [3]) is given as 35 mm; in data set [1] (setting [9]), 38 mm; in data set [1] (setting [10]) it was 38 mm; in data set [1] (setting [4]) it was “XX”; in data set [1] (setting [5]) it was “XX”; in data set [1] (setting [6]), “XX”. In addition, the “Zone of Inhibition” value in data set [1] (setting [7]) and in data set [1] (setting [8]) was “XX” in each case.
Turning to `[O]=[Zn]` [ZnO, zinc oxide], the “Zone of Inhibition” value was 30 mm in data set [1] (setting [3]); 32 mm in data set [1] (setting [10]); “XX” in data set [1] (setting [4]); “XX” in data set [1] (setting [5]); “XX” in data set [1] (setting [6]); “XX” in data set [1] (setting [7]). The “Zone of Inhibition” value in data set [1] (setting [8]) is “XX”.
As to Zinc Nicotinate [Zn-Nic], the “QB = the concentration of compound B as the only biocide (minimum inhibitory concentration)” value with M. furfur (zinc nicotinate alone) is 35000 (QB). The “Zone of Inhibition” value in data set [1] (setting [3]) is listed as 40 mm; in data set [1] (setting [9]), 40 mm; in data set [1] (setting [10]), 38 mm; in data set [1] (combination: ZnP 0.50 w/w % + zinc salt 1.50 w/w %), 48 mm; in data set [1] (combination: ZnP 1.00 w/w % + zinc salt 0.25 w/w %) it was 32 mm; in data set [1] (combination: ZnP 1.00 w/w % + zinc salt 0.50 w/w %), 48 mm. The “Zone of Inhibition” value is recorded as “XX” in data set [1] (setting [4]); “XX” in data set [1] (setting [5]); “XX” in data set [1] (setting [6]); “XX” in data set [1] (setting [7]); 6 mm in data set [1] (setting [8]).
Zinc pyrithione [ZPTO]: in data set [2] (ZPTO concentration in artificial marine water (substitute ocean water), paint formulation), the “ZPTO Conc (av.)” value came out at 2145.6 μgL−1. Besides, in data set [2] (paint formulation in substitute ocean water), the “Rate of Biocide Leaching (CZPTO * V*D)/(T*A)” value was found to be 171.65 μgcm^2d^−1. For the same molecule, the “QA = the concentration of compound A as the only biocide (minimum inhibitory concentration)” value in the data set with M. furfur (zinc pyrithione alone) is 8. The “Zone of Inhibition” value in data set [1] (ZnP alone 0.25 w/w %), in data set [1] (ZnP alone 0.50 w/w %), in data set [1] (ZnP alone 1.00 w/w %), in data set [1] (ZnP alone 1.50 w/w %) and in data set [1] (ZnP alone 2.00 w/w %) was 30 mm in each case.

The values above are taken from US10314312B2, “Synergistic antimicrobial composition of zinc pyrithione” (Jubilant Life Sciences Limited, priority 2014, dated 2019).
